Source: paper PMC8541513, “Stereoselective Synthesis of the Di-Spirooxindole Analogs Based Oxindole and Cyclohexanone Moieties as Potential Anticancer Agents” (Molecules, 2021)
Read-outs that look alike come from different tables or passages of the source.

Assays:
Human Fibroblast BJ = experiment: MTT cytotoxicity assay against BJ human fibroblast cells; format: cell-based; conditions: 48 h, 1-30 µM, ± SD of three independent experiments
Experimental: (§1) Cytotoxicity against BJ human fibroblast cells and cytotoxicity against PC3, HeLa, MCF-7, and MDA-MB231 cancer cell lines were evaluated by following the procedure as described in the literature (Supplementary Materials). […]
(§2) The Biological Activity Assays Protocols
(§3) Cytotoxic activity of compounds was evaluated in 96-well flat-bottomed micro plates by using the standard MTT (3-[4, 5-dimethylthiazole-2-yl]-2, 5-diphenyl-tetrazolium bromide) colorimetric assay.
(§4) For this purpose, PC3 cells (Prostate Cancer) / BJ Human fibroblast cells / HeLa cells (Cervical Cancer) / MCF-7 and MDA-MB-231 breast cancer cell line were cultured in Dulbecco’s Modified Eagle Medium, supplemented with 5% of fetal bovine serum (FBS), 100 IU/ml of penicillin and 100 µg/ml of streptomycin in 75 cm2 flasks, and kept in 5% CO2 incubator at 37 °C. Exponentially growing cells were harvested, counted with haemocytometer and diluted with a particular medium. Cell culture with the concentration of 1x10^5 cells/ml was prepared and introduced (100 µL/well) into 96-well plates. After overnight incubation, medium was removed and 200 µL of fresh medium was added with different concentrations of compounds (1-30µM). After 48 hrs, 200 µL MTT (0.5 mg/ml) was added to each well and incubated further for 4 hrs. Subsequently, 100µL of DMSO was added to each well. The extent of MTT reduction to formazan within cells was calculated by measuring the absorbance at 570 nm, using a micro plate reader (Spectra Max plus, Molecular Devices, CA, USA). The cytotoxicity was recorded […]
(§5) (1 picture or pasted object on this page, not shown here) […]
(§6) as concentration causing 50% growth inhibition (IC50) for PC3 cells. The percent inhibition was calculated by using the following formula:
(§7) % inhibition = 100-((mean of O.D of test compound – mean of O.D of negative control)/ (mean of O.D of positive control – mean of O.D of negative control)*100).
(§8) The results (% inhibition) were processed by using Soft- Max Pro software (Molecular Device, USA).
(§9) Standard drug used in the MTT assay was doxorubicin. […]

Prostate PC3 = experiment: MTT anticancer assay, prostate PC3 cells; format: cell-based; conditions: Homo sapiens, PC-3, 48 h, 1-30 µM, ± SD of three independent experiments
Experimental: (§10) The antiproliferative activity against four cancer cell lines, including prostate PC3, cervical HeLa, and triple-negative breast cancer (MCF-7 and MDA-MB231) was evaluated by MTT assay, while standard drug doxorubicin was used as a reference for comparison (Table 1).
as §1, §2, §3, §4, §5, §6, §7, §8, §9

Cervical HeLa = experiment: MTT anticancer assay, cervical HeLa cells; format: cell-based; conditions: 48 h, 1-30 µM, ± SD of three independent experiments; for IC50: Homo sapiens, HeLa
Experimental: as §10, §1, §2, §3, §4, §5, §6, §7, §8, §9

Breast MCF-7 = experiment: MTT anticancer assay, breast MCF-7 cells; format: cell-based; conditions: Homo sapiens, MCF7, 48 h, 1-30 µM, ± SD of three independent experiments
Experimental: as §10, §1, §2, §3, §4, §5, §6, §7, §8, §9

Breast MDA-MB231 = experiment: MTT anticancer assay, breast MDA-MB231 cells; format: cell-based; design: key to IC50, Breast MDA-MB231: NA means that the tested compound did not show anticancer activity at 30 µM; NS: Not soluble; conditions: 1-30 µM, ± SD of three independent experiments; for IC50: Homo sapiens, MDA-MB-231, 48 h
Experimental: as §10, §1, §2, §3, §4, §5, §6, §7, §8, §9

[1] = system: MCF-7 breast cancer cells; design: method as in PMID 28126436, PMID 29413708; conditions: cited from earlier work
HeLa cancer cell line = system: HeLa cancer cell line; design: method as in doi:10.1016/j.molstruc.2019.03.032; conditions: cited from earlier work
HeLa cancer cells = system: HeLa cancer cells; design: method as in PMID 30844686; conditions: cited from earlier work
[2] = system: K562 leukemia cancer cells; design: method as in PMID 28126436, PMID 29413708; conditions: cited from earlier work
HCT-116 = system: HCT-116; design: method as in PMID 30802707; conditions: cited from earlier work
HepG2 [3] = system: HepG2; design: method as in PMID 30802707; conditions: cited from earlier work
PC-3 = system: PC-3; design: method as in PMID 30802707; conditions: cited from earlier work
HepG2 [4] = system: HepG2; design: method as in Barakat et al. (15); conditions: ref Barakat et al. (15); cited from earlier work

SMILES	IC50 (Human Fibroblast BJ)	IC50 (Prostate PC3)	IC50 (Cervical HeLa)	IC50 (Breast MCF-7)	melting point	IC50 (Breast MDA-MB231)	also measured
O=C1/C(=C/c2ccc(Br)cc2)CCC[C@@]12[C@H](c1ccc(Br)cc1)[C@H]1C[C@@H]3CCCC[C@@H]3N1[C@]21C(=O)Nc2ccc([N+](=O)[O-])cc21 [Compound 4g, (1. S,1′S,3′S,4a′S,8a′S,9a′R)-3-((E)-4-bromobenzylidene)-1′-(4-bromophenyl)-5″-nitro-4a′,5′,6′,7′,8′,8a′,9′,9a′-octahydro-1′H-dispiro[cyclohexane-1,2′-pyrrolo[1,2-a]indole-3′,3″-indoline]-2,2″-dione]	21.7 ± 0.2 µM	14.3 ± 1 µM	> 30 µM	> 30 µM	125 to 126 °C	–	IC50, Breast MDA-MB231 (Breast MDA-MB231; 48 h): NS
O=C1/C(=C/c2cccc(F)c2)CCC[C@@]12[C@H](c1cccc(F)c1)[C@H]1C[C@@H]3CCCC[C@@H]3N1[C@]21C(=O)Nc2cc(Cl)ccc21 [Compound 4h, (1. S,1′S,3′S,4a′S,8a′S,9a′R)-6″-Chloro-3-((E)-3-fluorobenzylidene)-1′-(3-fluorophenyl)-4a′,5′,6′,7′,8′,8a′,9′,9a′-octahydro-1′H-dispiro[cyclohexane-1,2′-pyrrolo[1,2-a]indole-3′,3″-indoline]-2,2″-dione]	> 30 µM	> 30 µM	> 30 µM	> 30 µM	83 to 84 °C	14.43 ± 0.09 µM	–
O=C1/C(=C/c2cccc(F)c2)CCC[C@@]12[C@H](c1cccc(F)c1)[C@H]1C[C@@H]3CCCC[C@@H]3N1[C@]21C(=O)Nc2ccc([N+](=O)[O-])cc21 [Compound 4i, (1. S,1′S,3′S,4a′S,8a′S,9a′R)-3-((E)-3-Fluorobenzylidene)-1′-(3-fluorophenyl)-5″-nitro-4a′,5′,6′,7′,8′,8a′,9′,9a′-octahydro-1′H-dispiro[cyclohexane-1,2′-pyrrolo[1,2-a]indole-3′,3″-indoline]-2,2″-dione]	> 30 µM	> 30 µM	> 30 µM	> 30 µM	107 to 108 °C	7.63 ± 0.08 µM	–
COc1ccc2c(c1)[C@]1(C(=O)N2)N2[C@H](C[C@@H]3CCCC[C@@H]32)[C@@H](c2cccc(F)c2)[C@@]12CCC/C(=C\c1cccc(F)c1)C2=O [Compound 4j, (1. S,1′S,3′S,4a′S,8a′S,9a′R)-3-((E)-3-Fluorobenzylidene)-1′-(3-fluorophenyl)-5″-methoxy-4a′,5′,6′,7′,8′,8a′,9′,9a′-octahydro-1′H-dispiro[cyclohexane-1,2′-pyrrolo[1,2-a]indole-3′,3″-indoline]-2,2″-dione]	> 30 µM	> 30 µM	11.9 ± 0.04 µM	> 30 µM	92 to 93 °C	10.5 ± 0.71 µM	–
O=C1/C(=C/c2cccc(Br)c2)CCC[C@@]12[C@H](c1cccc(Br)c1)[C@H]1C[C@@H]3CCCC[C@@H]3N1[C@]21C(=O)Nc2cc(Cl)ccc21 [Compound 4k, (1. S,1′S,3′S,4a′S,8a′S,9a′R)-3-((E)-3-Bromobenzylidene)-1′-(3-bromophenyl)-6″-chloro-4a′,5′,6′,7′,8′,8a′,9′,9a′-octahydro-1′H-dispiro[cyclohexane-1,2′-pyrrolo[1,2-a]indole-3′,3″-indoline]-2,2″-dione]	> 30 µM	> 30 µM	> 30 µM	> 30 µM	115 to 116 °C	> 30 µM	IC50, Cervical HeLa (Cervical HeLa): inactive
O=C1/C(=C/c2ccc(F)cc2)CCC[C@@]12[C@H](c1ccc(F)cc1)[C@H]1C[C@@H]3CCCC[C@@H]3N1[C@]21C(=O)Nc2cc(Cl)ccc21 [Compound 4l, (1. S,1′S,3′S,4a′S,8a′S,9a′R)-6″-Chloro-3-((E)-4-fluorobenzylidene)-1′-(4-fluorophenyl)-4a′,5′,6′,7′,8′,8a′,9′,9a′-octahydro-1′H-dispiro[cyclohexane-1,2′-pyrrolo[1,2-a]indole-3′,3″-indoline]-2,2″-dione]	> 30 µM	> 30 µM	7.2 ± 0.5 µM	> 30 µM	96 to 97 °C	14.45 ± 0.08 µM	–
O=C1/C(=C/c2ccc(C(F)(F)F)cc2)CCC[C@@]12[C@H](c1ccc(C(F)(F)F)cc1)[C@H]1C[C@@H]3CCCC[C@@H]3N1[C@]21C(=O)Nc2cc(Cl)ccc21 [Compound 4m, (1. S,1′S,3′S,4a′S,8a′S,9a′R)-6″-Chloro-3-((E)-4-(trifluoromethyl)benzylidene)-1′-(4-(trifluoromethyl)phenyl)-4a′,5′,6′,7′,8′,8a′,9′,9a′-octahydro-1′H-dispiro[cyclohexane-1,2′-pyrrolo[1,2-a]indole-3′,3″-indoline]-2,2″-dione]	> 30 µM	> 30 µM	24.6 ± 0.4 µM	> 30 µM	78 to 79 °C	> 30 µM	–
Cc1ccc2c(c1)[C@]1(C(=O)N2)N2[C@H](C[C@@H]3CCCC[C@@H]32)[C@@H](c2ccc(C(F)(F)F)cc2)[C@@]12CCC/C(=C\c1ccc(C(F)(F)F)cc1)C2=O [Compound 4n, (1. S,1′S,3′S,4a′S,8a′S,9a′R)-5″-Methyl-3-((E)-4-(trifluoromethyl)benzylidene)-1′-(4-(trifluorom-thyl)phenyl)-4a′,5′,6′,7′,8′,8a′,9′,9a′-octahydro-1′H-dispiro[cyclohexane-1,2′-pyrrolo[1,2-a]indole-3′,3″-indoline]-2,2″-dione]	> 30 µM	> 30 µM	> 30 µM	> 30 µM	73 to 74 °C	> 30 µM	IC50, Cervical HeLa (Cervical HeLa): inactive
O=c1[nH]cc(F)c(=O)[nH]1 [Compound 5-FU, 5-fluorouracil]	–	–	–	–	–	–	IC50 [1]: 78.28 ± 0.2 µM
COc1cccc2c1C(=O)c1c(O)c3c(c(O)c1C2=O)C[C@@](O)(C(=O)CO)C[C@@H]3O[C@H]1C[C@H](N)[C@H](O)[C@H](C)O1 [Doxorubicin, reference compound]	> 30 µM	1.9 ± 0.4 µM	0.9 ± 0.14 µM	0.79 ± 0.05 µM	–	0.32 ± 0.002 µM	IC50 (HeLa cancer cell line): 1.2 µM
O=C(c1ccccn1)[C@@H]1[C@@H](c2ccccc2Cl)[C@H](c2ccccc2)N[C@@]12C(=O)Nc1ccccc12 [III]	–	–	–	–	–	–	selectivity between HeLa cancer cells and Vero healthy cells (HeLa cancer cells): 3 fold
O=C1C(=Cc2ccc(Br)cc2)CCCC12C1CCCN1C1(C(=O)Nc3ccccc31)C2c1ccc(Br)cc1 (stereo not drawn) [VIII]	–	–	–	–	–	–	IC50 [1]: 15.32 ± 0.02 µM
COc1ccc(C=C2CCCC3(C2=O)C(c2ccc(OC)cc2)C2CSCN2C32C(=O)Nc3ccccc32)cc1 (stereo not drawn) [VII]	–	–	–	–	–	–	IC50 [2]: 13.4 ± 0.14 µM
O=C(c1ccc(F)cc1)[C@H]1[C@H](c2ccc(Cl)cc2Cl)C2CSCN2[C@]12C(=O)Nc1ccccc12 (stereo partly drawn) [VI]	–	–	–	–	–	–	IC50 (HeLa cancer cell line): 11.2 µM
O=C(/C=C/c1ccc(Cl)cc1Cl)[C@H]1[C@H](c2ccc(Cl)cc2Cl)[C@H]2CSCN2[C@]12C(=O)Nc1ccccc12 [V]	–	–	–	–	–	–	selectivity index for the cancer cells versus the normal cells (HCT-116; HCT-116, HepG2, PC-3 versus normal cells): > 2; IC50 (HCT-116): < 4 µM; IC50 (HepG2 [3]): < 4 µM; IC50 (PC-3): < 4 µM
N.N.[Cl][Pt][Cl] [cisplatin]	–	–	–	–	–	–	IC50 (HepG2 [4]): 5.5 µM
